Data set [1] in a line: Storage at 25° C./93% RH for 1 week, re-analysis by XRPD/HPLC. As to conditions: for stability on storage at 25° C./93% RH: 1 week. The format is physicochemical.
Data set [2] in a line: Polymorphism study: maturation (temperature cycling RT to 50° C.) in solvents, XRPD. The format is physicochemical. As to conditions: three days. On the procedure: One of 21 solvents was added to each vial in a number of aliquots (up to 30 volumes), with shaking. All the samples were then placed under maturation between RT to 50° C. (4 hours at each temperature) for 3 days. After maturation the samples were analysed by XRPD. Clear solutions were cooled to −20° C. (freezer). If no precipitation occurred samples were evaporated at RT.
Samples were placed under maturation between RT-50° C. (4 hours cycle) for 3 days. After maturation the samples were analyzed by XRPD. Clear solutions were then cooled to −20° C. (freezer). If no precipitation occurred, samples were evaporated at RT.
The corresponding solvents and solvent mixtures were added in portions of (a total of) 5, 10, 20, and 30 volumes at 50° C., with shaking, aiming for clear solutions. After each addition, the vials were allowed to shake for 20 minutes, after which observations were made. Solutions were allowed to evaporate, whereas slurries were set for 8 hour temperature cycling maturation, between RT and 50° C., for 5 days.
The oils obtained by solvent evaporation were used for the maturation screen. Anhydrous solvents (5 volumes; 100 μL) were used in order to minimise the amount of water present. Any solutions were allowed to slowly evaporate, whereas slurries were set for 8 hour temperature cycling maturation, between RT and 50° C. […] These were matured for a further 24 hours before performing XRPD analysis.
The selected solvents and solvent mixtures (5 to 20 volumes) were added with stirring. Any solutions were allowed to slowly evaporate, whereas slurries were set for 8 hour temperature cycling maturation, between RT and 50° C., for 2 days.
Crystals were ground in order to analyse them by XRPD. Suspensions were set for temperature cycling for a total of five days after which time XRPD analysis was carried out.

Data set [3] can be described thus: Storage at 40° C./75% RH (elevated humidity) for 1 week, re-analysis by XRPD/HPLC.
Method: The crystalline solids were filtered, dried at ambient conditions, and stored at 40° C./75% RH for 1 week and analyzed by ^1H NMR/IC.
Samples from the screen using amorphous free base Compound 1 were analysed by ^1H-NMR and DSC, and re-analysis by XRPD was also carried out after drying at 50° C./vacuum and storage at 40° C./75% RH (the same sample was dried and stored at elevated humidity).
Data set [4] in a line: PK evaluation in CD-1 mouse. The format is in vivo. On the procedure: (§1) For example, Compound 1 bis-hydrogen sulfate monohydrate was evaluated in CD-1 mouse, Wistar rat, Cyno monkey, and Beagle dog. Cross species allometric scaling of CL (drug clearance) and Vss (volume at steady state) predicts low CL, high Vss and long T112 for Compound 1 in humans.
Data set [5] is described as follows: PK evaluation in Wistar rat. Type of data set: in vivo. On the procedure: as §1
Data set [6] in a line: PK evaluation in Cyno monkey. The format is in vivo. On the procedure: as §1
Data set [7] in a line: PK evaluation in Beagle dog. The format is in vivo. As for the experimental part: as §1
Data set [8] can be described thus: Gravimetric vapour sorption (GVS). The format is physicochemical. As for the experimental part: Sorption isotherms were obtained using a Hiden IGASorp moisture sorption analyser, controlled by CFRSorp software. The sample temperature was maintained at 25° C. by a Huber re-circulating water bath. The humidity was controlled by mixing streams of dry and wet nitrogen, with a total flow rate of 250 ml/min. The relative humidity (RH) was measured by a calibrated Vaisala RH probe (dynamic range of 0-95% RH), located near the sample. The weight change, (mass relaxation) of the sample as a function of % RH was constantly monitored by the microbalance (accuracy ±0.001 mg). Typically 10-20 mg of sample was placed in a tared mesh stainless steel basket under ambient conditions. The sample was loaded and unloaded at 40% RH and 25° C. (typical room conditions). A moisture sorption isotherm was performed as outlined below (2 scans giving 1 complete cycle). The standard isotherm was performed at 25° C. at 10% RH intervals over a 0-90% RH range.
The software uses a least squares minimisation procedure together with a model of the mass relaxation, to predict an asymptotic value. The measured mass relaxation value must be within 5% of that predicted by the software, before the next % RH value is selected. The minimum equilibration time was set to 1 hour and the maximum to 4 hours. The sample was recovered after completion of the isotherm and re-analysed by XRPD.

A short description of data set [9]: Thermodynamic aqueous solubility. The format is physicochemical.
Data set [10] is described as follows: Stability of Hydrate Form 2: maturation in water or acetic acid: water 1:3 at constant temperature. The format is physicochemical. The note with it: 40 hours maturation. On the procedure:
Both solids obtained from maturation at 25° C.

Turning to `COc1cc(-c2cccc3cc([C@H](C)Nc4nc(N)ncc4C#N)n(-c4ccccc4)c(=O)c23)ccn1` [amorphous free base of Compound 1], the “Stability at 25° C./93% RH” value in data set [1] (after 1 week, XRPD) is given as “No changes after 1 week”. Also, the “XRPD form after maturation in acetic acid: water 1:1” value in [2] (listed as amorphous material) is given as “Form 6”. Also, in data set [3] (after 1 week, XRPD), the “Stability at 40° C./75% RH” value is recorded as “No changes after 1 week”. Further, the “solid form after storage at elevated humidity” value in [3] (elevated humidity conditions, not specified in the sentence) is “No crystallisation”.

Take `COc1cc(-c2cccc3cc([C@H](C)Nc4nc(N)ncc4C#N)n(-c4ccccc4)c(=O)c23)ccn1.O.O=S(=O)(O)O.O=S(=O)(O)O`: the AUClast in data set [4] (IV, 5 mg/kg) is 1012 ng·h/mL; in [4] (PO, 10 mg/kg) it was 856 ng·h/mL; in data set [5] (IV, 2 mg/kg) it was 2061 ng·h/mL; in data set [5] (PO, 10 mg/kg), 5968 ng·h/mL; in data set [6] (IV, 1 mg/kg), 2534 ng·h/mL; in data set [6] (PO, 5 mg/kg), 12790 ng·h/mL. The AUClast in data set [7] (IV, 1 mg/kg) came to 4746 ng·h/mL; in data set [7] (PO, 5 mg/kg), 17626 ng·h/mL. Besides, the Cl in data set [4] (IV, 5 mg/kg) was found to be 82 mL/min/kg; in data set [5] (IV, 2 mg/kg), 17 mL/min/kg; in data set [6] (IV, 1 mg/kg) it was 6.5 mL/min/kg; in [7] (IV, 1 mg/kg) it was 2.5 mL/min/kg. Also, the Cmax in [4] (IV, 5 mg/kg) amounted to 1417 ng/mL; in data set [4] (PO, 10 mg/kg), 647 ng/mL; in [5] (IV, 2 mg/kg), 799 ng/mL; in data set [5] (PO, 10 mg/kg), 787 ng/mL; in data set [6] (IV, 1 mg/kg), 581 ng/mL; in data set [6] (PO, 5 mg/kg), 2365 ng/mL. Besides, the maximum concentration (Cmax) in data set [7] (IV, 1 mg/kg) is 424 ng/mL; in [7] (PO, 5 mg/kg) it was 1830 ng/mL. The T1/2 in data set [4] (IV, 5 mg/kg) worked out at 0.6 h; in data set [4] (PO, 10 mg/kg), 1.7 h; in [5] (IV, 2 mg/kg), 2.3 h; in [5] (PO, 10 mg/kg) it was 3.3 h; in data set [6] (IV, 1 mg/kg), 4.1 h; in data set [6] (PO, 5 mg/kg), 4.0 h. Further, the T1/2 in data set [7] (IV, 1 mg/kg) worked out at 14.6 h; in [7] (PO, 5 mg/kg), 8.0 h. The Vss turned out to be 2.3 L/kg in data set [4] (IV, 5 mg/kg); 2.4 L/kg in data set [5] (IV, 2 mg/kg); 1.6 L/kg in [6] (IV, 1 mg/kg); 2.9 L/kg in [7] (IV, 1 mg/kg). Also, the Foral in data set [4] (PO, 10 mg/kg) turned out to be 45%; in data set [5] (PO, 10 mg/kg) it was 58%; in data set [6] (PO, 5 mg/kg), 100%; in data set [7] (PO, 5 mg/kg) it was 74%. In addition, the Tmax in [4] (PO, 10 mg/kg) came out at 0.25 h; in data set [5] (PO, 10 mg/kg), 1.3 h; in data set [6] (PO, 5 mg/kg), 2 h; in data set [7] (PO, 5 mg/kg), 2.3 h.

For `COc1cc(-c2cccc3cc([C@H](C)Nc4nc(N)ncc4C#N)n(-c4ccccc4)c(=O)c23)ccn1`, in data set [1] (salts scaled-up at 0.5 gram), the “Storage 25° C./93% RH for 1 week: HPLC Purity” value is reported as “HPLC Purity: Unchanged” and the “Storage 25° C./93% RH for 1 week: XRPD (D8)” value is recorded as “XRPD (D8): Unchanged”. The “XRPD post GVS (C2)” value in data set [8] is on record as “Unchanged”. For the same molecule, the “GVS Single cycle” value in data set [8] (hygroscopicity in words, 25° C., listed as 1-2-Ethanedisulfonic acid) is given as “Moderately hygroscopic”. Also, the “XRPD (C2) post Aqueous solubility” value in data set [9] (residual solid) is listed as “Low cryst. 1,2-ethanedisulfonic”. Moreover, the “Thermodynamic aqueous solubility” value in [9] (salts scaled-up at 0.5 gram, listed as 1-2-Ethanedisulfonic acid) turned out to be 6200 µg/mL. In addition, in data set [3] (salts scaled-up at 0.5 gram), the “Storage 40° C./75% RH for 1 week: HPLC Purity” value was “HPLC Purity: Unchanged” and the “Storage 40° C./75% RH for 1 week: XRPD (D8)” value is listed as “XRPD (D8): Unchanged”.

In the case of `COc1cc(-c2cccc3cc([C@H](C)Nc4nc(N)ncc4C#N)n(-c4ccccc4)c(=O)c23)ccn1.O` [Form 2 of free base of Compound 1], the XRPD entry in data set [10] (Acetic acid:water 1:3, 25° C.) is on record as “Hydrate Form 2”; in data set [10] (Water, 25° C.), “Hydrate Form 2”; in data set [10] (Water, 90° C.), “Hydrate Form 2”.

With `COc1cc(-c2cccc3cc([C@H](C)Nc4nc(N)ncc4C#N)n(-c4ccccc4)c(=O)c23)ccn1` [Form 1 of the free base of Compound 1], the “stability on storage at 25° C./93% RH” value in [1] is “converts to Form 3 of the free base of Compound 1”; in [1] (listed as Free base Form 1) it was “conversion to Form 3”. Also, the “Stability at 25° C./93% RH” value in data set [1] (form) was “Conversion to Form 3 (FIG. 31)”. Besides, the “GVS: moisture on loading” value in data set [8] stood at 0.7 % w/w. The “GVS behaviour (hydration / desolvation)” value in [8] (listed as Free base Form 1) is listed as “hydrates to a higher hydrate above 80% RH”. Also, the “GVS: uptake between 80-90% RH” value in data set [8] (with hysteresis on desorption) was 4.0 % w/w. In data set [9] (at pH 6.85), the Thermodynamic aqueous solubility stood at 4 µg/mL. For the same molecule, in data set [2] (listed as hydrate Form 1 of free base Compound 1), the “XRPD form after maturation in acetic acid: water 1:1” value is “Form 6”. In addition, the “Stability at 40° C./75% RH” value in data set [3] (1 week, form) is “No changes in form after 1 week”.

The values are drawn from patent publication US20160024051A1, “SALTS AND SOLID FORMS OF ISOQUINOLINONES AND COMPOSITION COMPRISING AND METHODS OF USING THE SAME” (INFINITY PHARMACEUTICALS, INC., priority 2013, published 2016).
